Data from patent US7563794B2, “Ziprasidone free from colored impurities and a process for its preparation” (Dipharma Francis S.r.l., priority 2005, dated 2009).
Like-named read-outs stand apart in the source and are kept apart here.

Assays:
water solubility = format: physicochemical; settings: particles having mean diameter D[4,3] higher than 85 μm
[1] = hygroscopicity / absorption of atmospheric humidity (water content by Karl-Fischer); format: physicochemical; settings: particles having mean diameter D[4,3] higher than 85 μm (150 μm vs known 50 μm sample, 25° C., 50% relative humidity, FIG. 2)
Experimental: The samples water content was determined by the known Karl—Fischer technique. “Approximatively” and “about” herein mean around ±10% of the indicated value.

[2] = cited from earlier work
[3] = cited from earlier work; remark: listed apart in the source
[4] = reported by EP 965 343; cited from earlier work
[5] = particles having diameter lower than or equal to 85 μm, aqueous solutions at physiological pH, EP 965 343; cited from earlier work

| water solubility (water solubility) | Structure (SMILES) | resistance to absorption of atmospheric humidity ([1]; listed as Anhydrous ziprasidone hydrochloride) | resistance to absorption of atmospheric humidity ([1]; hydrochloride) | hygroscopicity ([2]; exposed to air, spontaneously converts to the hydrate form) | hygroscopicity ([2]; particles with diameter lower than or equal to 85 μm) | permeability through biological membranes [3] | water solubility [4] | amount of the compound that dissolves within 45 minutes [5] |
| --- | --- | --- | --- | --- | --- | --- | --- | --- |
| substantially unchanged | Cl.O=C1Cc2cc(CCN3CCN(c4nsc5ccccc45)CC3)c(Cl)cc2N1 [anhydrous ziprasidone hydrochloride] | higher resistance to the absorption of atmospheric humidity | improved resistance to atmospheric humidity | highly hygroscopic | high hygroscopicity | – | – | – |
| – | Cl.O=C1Cc2cc(CCN3CCN(c4nsc5ccccc45)CC3)c(Cl)cc2N1 [ziprasidone hydrochloride, 5-(2-(4-(1,2-benzisothiazol-3-yl)-1-piperazinyl)-ethyl)-6-chloro-1,3-dihydro-2H-indol-2-one hydrochloride] | – | – | – | – | high permeability | sparingly water-soluble | at least 70% |
